Source: article PMC6522912, “Evaluation of the published kinase inhibitor set to identify multiple inhibitors of bacterial ATP-dependent mur ligases” (Journal of Enzyme Inhibition and Medicinal Chemistry, 2019)
≈ marks a conversion by molar mass, not a printed value. Like-named read-outs stand apart in the source and are kept apart here.

Key:
E. coli MurC = E. coli MurC (Escherichia coli, UniProt P17952); test: Malachite green inhibition assay, MurC; type: biochemical; details: for remaining activity at 100 µM: 0.25 h; for IC50 / MurC RA [%]: Table 1; for IC50: read-out: MurC IC50; for MurC RA [%]: residual activity at 100 µM compound
E. coli MurD = E. coli MurD (Escherichia coli, UniProt P14900); test: biochemical; details: for remaining activity at 100 µM: 0.25 h, Table S1, PKIS screening, read-out: RA [%] at 100 µM MurD; for IC50 / MurD RA [%]: Table 1; for IC50: read-out: MurD IC50; for LE (MurD): ligand efficiency, LE = (1.37 × pIC50)/HAC; for MurD RA [%]: residual activity at 100 µM compound
Procedure, shortened: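 Orthophosphate released by E. coli MurD quantified by malachite green (Biomol green) absorbance at 650 nm after 15 min at 37 °C. Residual activity relative to DMSO-only controls.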

E. coli MurE = E. coli MurE (Escherichia coli, UniProt P22188); test: Malachite green inhibition assay, MurE; type: biochemical; details: for IC50 / MurE RA [%]: Table 1; for IC50: read-out: MurE IC50; for MurE RA [%]: residual activity at 100 µM compound
Procedure: Inhibition of the Mur ligases was determined using the malachite green assay, with slight modifications.
MurE: 50 mM Hepes, pH 8.0, 15 mM MgCl2, 0.005% Triton X-114, 60 µM meso-diaminopimelic acid, 100 µM uridine-5′-diphosphate-N-acetylmuramoyl-L-alanine-D-glutamate, 1000 µM ATP, and purified E. coli MurE[27].
In all cases, the final concentration of DMSO was 5% (v/v). After incubation for 15 min at 37 °C, the enzyme reaction was terminated by addition of 100 µM Biomol green reagent, and the absorbance was measured at 650 nm after 5 min. All of the experiments were run in duplicate. Residual activities were calculated with respect to control assays without the tested compounds, but with the 5% DMSO carrier.
The published kinase inhibitor set compounds were evaluated for inhibition of MurC, D and F ligases from E. coli using the Malachite green assay, which detects orthophosphate generated during enzymatic reactions. To avoid non-specific inhibition due to aggregate formation, all of the compounds were tested in the presence of detergent (0.005% Triton-X114). The data are presented as the residual activities of these Mur ligases in the presence of 100 µM of each test compound (Supporting Information Table S1). […]. The IC50 values against MurC, D, E and F were determined for the selected hit compounds – one representative compound from each structural class was chosen: compound 1[33], aza-stilbene derivative; compound 2[34], alkynyl pyrimidine; compound 3[35], pyrazolo [1,5]-b]pyridazine; compound 4[36], phenoxypyrimidine; compound 5[37], 4,6-bis-anilino-1H-pyrrolo[2,3-pyrimidine (Table 1). […]. […] Among the hits, compounds for further mechanistic studies were chosen on the basis of their ligand efficiency. Ligand efficiency quantifies the molecular properties, particularly size and lipophilicity and is used as a selection criterion for structurally different compounds as more ‘efficient’ ligands have the potential to control for the inflation of these properties[38] Thus ligand efficiencies were calculated for the four hits (Supporting Information Table S2)[39]^,[40], and compound 1 was selected as the most promising for additional studies. Additionally, regarding the data of profiled compounds in large panels of human kinase assays[41] […] To provide sufficient amounts of compound 1 for kinetic and NMR studies, it was resynthesized according to the synthetic procedures (Figure 2) described in the literature.

E. coli MurF = E. coli MurF (Escherichia coli, UniProt P11880); test: biochemical; details: for remaining activity at 100 µM: 0.25 h, Table S1, PKIS screening, read-out: RA [%] at 100 µM MurF; for IC50 / MurF RA [%]: Table 1; for LE (MurF): ligand efficiency, LE = (1.37 × pIC50)/HAC; for MurF RA [%]: residual activity at 100 µM compound
human kinases = details: over 200 kinase activity assays and 68 DSF assays; cited from earlier work
E. coli (ATCC 25922) = test: Antimicrobial testing, broth microdilution; type: cell-based; details: Escherichia coli, ATCC25922; positive control; 20 h, 37 °C
Procedure: (§1) Antimicrobial testing was performed by the broth microdilution method in 96-well plates following the Clinical and Laboratory Standards Institute guidelines[29] and European Committee on Antimicrobial Susceptibility Testing recommendations. Bacterial suspensions equivalent to 0.5 McFarland turbidity standard were diluted with cation-adjusted Mueller–Hinton broth with TES buffering (ThermoFisher Scientific), for a final inoculum of 10^5 CFU/mL. The compounds dissolved in DMSO and the inoculum were mixed together and incubated for 20 h at 37 °C. […] The MICs were determined against Staphylococcus aureus (ATCC 29213) and E. coli (ATCC 25922) bacterial strains. Tetracycline was used as the positive control on every assay plate, with MICs of 0.5 and 1 µg/mL for S. aureus and E. coli, respectively.

[1] = test system: Staphylococcus aureus (ATCC 29213); test: Antimicrobial testing, broth microdilution; type: cell-based; details: ATCC29213, positive control, 20 h, 37 °C
Procedure: as §1

[2] = Table S1, PKIS screening, read-out: RA [%] at 100 µM MurC
[3] = read-out: RA [%] at 100 µM MurC, Table S1, PKIS screening

Chain of E. coli MurF (P11880 whole entry): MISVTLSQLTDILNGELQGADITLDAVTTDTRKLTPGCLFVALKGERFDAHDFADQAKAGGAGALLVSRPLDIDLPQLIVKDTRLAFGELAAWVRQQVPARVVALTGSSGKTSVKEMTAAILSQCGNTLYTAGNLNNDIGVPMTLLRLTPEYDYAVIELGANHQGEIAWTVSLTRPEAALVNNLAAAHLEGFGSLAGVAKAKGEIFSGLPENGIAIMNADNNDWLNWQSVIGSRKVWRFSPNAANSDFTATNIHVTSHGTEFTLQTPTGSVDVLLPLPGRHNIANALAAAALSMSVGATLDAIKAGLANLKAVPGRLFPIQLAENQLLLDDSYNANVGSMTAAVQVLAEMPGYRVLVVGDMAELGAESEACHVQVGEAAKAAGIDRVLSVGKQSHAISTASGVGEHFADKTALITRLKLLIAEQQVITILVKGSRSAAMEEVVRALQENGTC
Chain of E. coli MurE (P22188 whole entry): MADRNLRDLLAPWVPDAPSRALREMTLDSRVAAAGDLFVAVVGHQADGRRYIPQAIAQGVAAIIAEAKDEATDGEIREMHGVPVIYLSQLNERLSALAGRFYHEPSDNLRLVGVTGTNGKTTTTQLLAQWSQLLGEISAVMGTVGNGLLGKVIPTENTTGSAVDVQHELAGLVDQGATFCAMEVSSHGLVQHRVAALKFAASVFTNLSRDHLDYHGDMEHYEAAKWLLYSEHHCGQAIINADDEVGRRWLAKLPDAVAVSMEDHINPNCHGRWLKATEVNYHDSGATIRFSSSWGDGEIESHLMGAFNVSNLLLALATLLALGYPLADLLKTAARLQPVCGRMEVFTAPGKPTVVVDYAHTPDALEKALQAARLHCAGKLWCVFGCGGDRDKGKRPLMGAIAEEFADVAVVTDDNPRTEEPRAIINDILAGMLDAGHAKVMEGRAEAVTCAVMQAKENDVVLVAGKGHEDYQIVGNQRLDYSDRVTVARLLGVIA
Chain of E. coli MurD (P14900 whole entry): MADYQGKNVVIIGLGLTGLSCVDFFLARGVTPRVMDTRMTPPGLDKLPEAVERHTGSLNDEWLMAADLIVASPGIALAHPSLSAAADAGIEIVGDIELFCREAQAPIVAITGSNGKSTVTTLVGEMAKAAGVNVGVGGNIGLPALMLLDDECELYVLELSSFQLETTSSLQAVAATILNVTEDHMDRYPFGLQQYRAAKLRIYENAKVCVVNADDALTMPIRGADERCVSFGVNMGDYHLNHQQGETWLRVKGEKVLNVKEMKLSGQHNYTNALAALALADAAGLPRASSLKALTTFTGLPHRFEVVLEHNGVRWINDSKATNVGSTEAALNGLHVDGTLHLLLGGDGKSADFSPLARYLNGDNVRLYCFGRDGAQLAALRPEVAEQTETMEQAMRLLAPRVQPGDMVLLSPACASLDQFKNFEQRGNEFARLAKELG
Chain of E. coli MurC (P17952 whole entry): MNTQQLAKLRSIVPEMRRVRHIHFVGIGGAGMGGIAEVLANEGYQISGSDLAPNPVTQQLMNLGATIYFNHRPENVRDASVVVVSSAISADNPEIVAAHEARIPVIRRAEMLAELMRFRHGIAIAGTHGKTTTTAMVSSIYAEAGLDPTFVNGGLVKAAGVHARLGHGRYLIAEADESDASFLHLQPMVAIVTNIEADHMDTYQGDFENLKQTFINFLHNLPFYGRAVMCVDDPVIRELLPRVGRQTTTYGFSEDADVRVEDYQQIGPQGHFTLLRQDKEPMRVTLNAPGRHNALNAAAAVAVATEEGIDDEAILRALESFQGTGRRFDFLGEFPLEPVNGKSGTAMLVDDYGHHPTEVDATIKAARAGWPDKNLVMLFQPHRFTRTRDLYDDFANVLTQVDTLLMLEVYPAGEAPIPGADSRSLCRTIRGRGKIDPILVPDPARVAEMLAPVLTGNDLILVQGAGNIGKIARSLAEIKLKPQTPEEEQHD

| SMILES | remaining activity at 100 µM (E. coli MurC; [2]) | IC50 (E. coli MurC) | MurC RA [%] (E. coli MurC) | remaining activity at 100 µM (E. coli MurD) | IC50 (E. coli MurD) | LE (MurD) (E. coli MurD) | MurD RA [%] (E. coli MurD) | IC50 (E. coli MurE) | MurE RA [%] (E. coli MurE) | remaining activity at 100 µM (E. coli MurF) | IC50 (E. coli MurF) | LE (MurF) (E. coli MurF) | MurF RA [%] (E. coli MurF) | activity at human kinases (human kinases) | remaining activity at 100 µM (E. coli MurC; [3]) | residual activity printed in column IC50 MurD (E. coli MurD; Table S2) | residual activity printed in column IC50 MurE (E. coli MurE; Table S2) | residual activity printed in column IC50 MurF (E. coli MurF; Table S2) | MIC (E. coli (ATCC 25922)) | MIC [1] |
| --- | --- | --- | --- | --- | --- | --- | --- | --- | --- | --- | --- | --- | --- | --- | --- | --- | --- | --- | --- | --- |
| Nc1ccc(C#Cc2cncnc2Nc2ccc(OCc3cccc(F)c3)c(Cl)c2)cc1 [Compound 2] | 43% | 62 µM | 43% | 51% | 104 µM | 0.17 | 51% | 157 µM | 50% | 30% | 39 µM | 0.19 | 30% | no appreciable activity |  |  |  |  |  |  |
| COc1ccc(-c2nn3ncccc3c2-c2ccnc(Nc3cccc(C(F)(F)F)c3)n2)cc1 [Compound 3] |  | 74 µM | 10% | 80% |  |  | 83% |  | 84% | 35% |  |  | 100% |  | 10% | 83% | 84% | 100% |  |  |
| N#Cc1ccc(Oc2nccc(-c3c(-c4ccc(F)cc4)ncn3C3CCNCC3)n2)cc1 [Compound 4] |  | 90 µM | 48% | 27% | 63 µM | 0.17 | 27% | 139 µM | 56% | 19% | 95 µM | 0.17 | 51% | no appreciable activity | 48% |  |  |  |  |  |
| CCCN1CCCC(c2ccc(Nc3nc(Nc4cc(F)ccc4C(N)=O)c4cc[nH]c4n3)c(OC)c2)C1 (stereo not shown) [Compound 5] | 29% | 62 µM | 29% | 10% | 32 µM | 0.16 | 10% | 58 µM | 26% | 16% | 66 µM | 0.15 | 16% | appreciable activity |  |  |  |  |  |  |
| CN(C)[C@@H]1C(O)=C(C(N)=O)C(=O)[C@@]2(O)C(O)=C3C(=O)c4c(O)cccc4[C@@](C)(O)[C@H]3C[C@@H]12 [Tetracycline] |  |  |  |  |  |  |  |  |  |  |  |  |  |  |  |  |  |  | 1 µg/mL (≈ 2.25 µM) | 0.5 µg/mL (≈ 1.13 µM) |
